Assay results taken from the supplement of paper PMC13380429.
± gives the standard deviation of the averaged measurements.

Key:
Conditions in all cases: 72 h
[1] = test system: Calu-3; assay: cell viability relative to DMSO; higher = less toxic
[2] = test system: U2OS; assay: as above
[3] = test system: Vero E6; assay: as above
[4] = test system: HepG2; assay: as above
[5] = test system: Caco-2; assay: as above
[6] = test system: Calu-3; assay: relative viability EC50 (midpoint between 100% and the lowest measured viability); higher = less toxic
[7] = test system: U2OS; assay: as above
[8] = test system: Vero E6; assay: as above
[9] = test system: HepG2; assay: as above
[10] = test system: Caco-2; assay: as above
[11] = test system: Calu-3; assay: drug sensitivity score (DSS) for viability; higher = more toxic; extreme values may be limits of the assay
[12] = test system: U2OS; assay: as above
[13] = test system: Vero E6; assay: as above
[14] = test system: HepG2; assay: as above
[15] = test system: Caco-2; assay: as above

Compound | cell viability ([1]; 1 nM) [%] | cell viability ([1]; 10 nM) [%] | cell viability ([1]; 100 nM) [%] | cell viability ([1]; 1000 nM) [%] | cell viability ([1]; 10000 nM) [%] | cell viability ([2]; 1 nM) [%] | cell viability ([2]; 10 nM) [%] | cell viability ([2]; 100 nM) [%] | cell viability ([2]; 1000 nM) [%] | cell viability ([2]; 10000 nM) [%] | cell viability ([3]; 1 nM) [%] | cell viability ([3]; 10 nM) [%] | cell viability ([3]; 100 nM) [%] | cell viability ([3]; 1000 nM) [%] | cell viability ([3]; 10000 nM) [%] | cell viability ([4]; 1 nM) [%] | cell viability ([4]; 10 nM) [%] | cell viability ([4]; 100 nM) [%] | cell viability ([4]; 1000 nM) [%] | cell viability ([4]; 10000 nM) [%] | cell viability ([5]; 1 nM) [%] | cell viability ([5]; 10 nM) [%] | cell viability ([5]; 100 nM) [%] | cell viability ([5]; 1000 nM) [%] | cell viability ([5]; 10000 nM) [%] | relative viability EC50 [6] [µM] | relative viability EC50 [7] [µM] | relative viability EC50 [8] [µM] | relative viability EC50 [9] [µM] | relative viability EC50 [10] [µM] | drug sensitivity score [11] | drug sensitivity score [12] | drug sensitivity score [13] | drug sensitivity score [14] | drug sensitivity score [15]
CCOc1ccc(-n2c([C@@H](C)N(Cc3cccnc3)C(=O)Cc3ccc(OC(F)(F)F)cc3)nc3ncccc3c2=O)cc1 (racemic) [AMG-487-(+/-)] | 100.8 ± 0.57 | 99.7 ± 0.99 | 93.3 ± 2.7 | 92.1 ± 3.4 | 98.5 ± 6 | 100.5 ± 0.35 | 101 ± 4 | 97.3 ± 1.7 | 98.6 ± 0.85 | 99.6 ± 1.7 | 97.8 ± 3.2 | 102 ± 3.9 | 101 ± 2.5 | 97.8 ± 0.57 | 102 ± 2.5 | 99.7 ± 1.1 | 98 ± 11 | 97.5 ± 8.5 | 95.2 ± 4.5 | 94 ± 13 | 94 ± 2.5 | 98.2 ± 13 | 98.5 ± 2 | 101 ± 6 | 94.5 ± 8.4 | > 10 | > 10 | > 10 | > 10 | > 10 | 0.05 ± 0.071 | 0 | 0 | 0.45 ± 0.64 | 0
c1ccc2c(c1)[I+]c1ccccc1-2 [diphenyleneiodonium] | 92.6 | 94.5 | 78.8 | 69.1 | 44.9 | 95.4 | 95.1 | 64.8 | 39.3 | 20.7 | 94.9 | 95 | 65.9 | 38.9 | 25.1 | 110 | 87.7 | 14.9 | 8.2 | 2.4 | 92.9 | 97.3 | 72.3 | 61.9 | 37 | 0.308 | 0.16 | 0.137 | 0.0322 | 0.251 | 8.6 | 16 | 15.8 | 29.3 | 10.8
CC1(C)[C@@H]2C[C@@H](O)[C@@](C)(O)[C@H]1C2 [2,3-cis/exo-pinanediol] | 106 | 98.1 | 102 | 106 | 103 | 96.1 | 97.3 | 95.7 | 100 | 97.3 | 100 | 99.9 | 99.3 | 93.1 | 100 | 100 | 110 | 104 | 93.9 | 108 | 103 | 101 | 97.2 | 108 | 87.2 | > 10 | > 10 | > 10 | > 10 | > 10 | 0 | 0 | 0 | 0 | 0
Cc1ccc(S(=O)(=O)c2ccc([N+](=O)[O-])o2)cc1 | 98 | 89.7 | 101 | 89.9 | 0 | 97.5 | 95.1 | 109 | 72.4 | 0 | 94.6 | 99.1 | 97.9 | 98.5 | -0.1 | 84.3 | 100 | 102 | 86.7 | 0 | 97.1 | 96.6 | 105 | 87.6 | 0 | 2.33 | 1.47 | 3.06 | 2.09 | 2.16 | 7.2 | 9.6 | 5.8 | 7.8 | 7.6
O=c1[nH]c(=O)n([C@H]2CCCO2)cc1F (racemic) [ftorafur] | 96.5 | 95.2 | 93.9 | 94.4 | 99.2 | 99 | 95.9 | 102 | 98.1 | 105 | 96.1 | 103 | 91.2 | 102 | 108 | 87.2 | 111 | 91.5 | 110 | 113 | 93.5 | 103 | 106 | 90.7 | 100 | > 10 | > 10 | > 10 | > 10 | > 10 | 0 | 0 | 0 | 0 | 0
CC[C@H]1[C@@H](O)[C@@H]2[C@H](CC[C@]3(C)[C@@H]([C@H](C)CCC(=O)O)CC[C@@H]23)[C@@]2(C)CC[C@@H](O)C[C@@H]12 [obeticholic-acid] | 106 ± 6.7 | 100 ± 2.4 | 105.9 ± 0.57 | 97.5 ± 6.6 | 98.2 ± 7.2 | 102 | 104 | 96.1 | 104 | 99.2 | 109 ± 20 | 94.8 ± 3.3 | 99.8 ± 12 | 97.3 ± 0.57 | 103 ± 7.1 | 100 ± 4.6 | 102 ± 17 | 95.5 ± 8.1 | 103 ± 3.2 | 104.8 ± 0.14 | 98.7 ± 5.8 | 104 ± 4.4 | 95 ± 8.5 | 94.8 ± 1.6 | 95.5 ± 1.6 | > 10 | > 10 | > 10 | > 10 | > 10 | 0 | 0 | 0 | 0 | 0.25 ± 0.35
